Test results from patent US5292734A, “Angiotensin II receptor blocking 2,3,6 substituted quinazolinones” (American Cyanamid Company, priority 1993, dated 1994).

Molecular target: T1, Angiotensin II Receptor (Bos taurus, UniProt P25104)
T1 construct: The brownish tissue forming the adrenal cortex is scraped off and finely minced with scissors before homogenization; from tissue; host or cells: beef adrenal cortex, microsomal membranes (100,000 x g pellet)
T1 sequence (P25104 1-359): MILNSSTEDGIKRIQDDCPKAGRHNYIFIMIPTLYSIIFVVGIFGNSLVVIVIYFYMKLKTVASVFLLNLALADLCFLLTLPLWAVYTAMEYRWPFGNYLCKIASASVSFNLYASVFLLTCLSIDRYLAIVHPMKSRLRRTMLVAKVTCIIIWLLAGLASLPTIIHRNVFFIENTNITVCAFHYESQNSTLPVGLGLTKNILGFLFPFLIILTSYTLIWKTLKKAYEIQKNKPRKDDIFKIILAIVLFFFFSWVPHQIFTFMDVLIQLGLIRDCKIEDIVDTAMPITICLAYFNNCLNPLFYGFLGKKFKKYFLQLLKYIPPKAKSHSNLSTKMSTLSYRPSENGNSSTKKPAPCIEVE
Assay: Receptor binding assay: binding of [^125 I](Sar^1,Ile^8)AngII
Conditions: beef adrenal cortex membranes, 60 min, room temperature
Text: Beef adrenals are obtained from a local slaughter house (Maxwell-Cohen). [^125 I](Sar^1,Ile^8)AngII, S. A. 2200 Ci/mmole, is purchased from Dupont (NEN®, Boston, Mass.). All unlabeled AngII analogs, Dimethylsulfoxide (DMSO), nucleotides, bovine serum albumin (BSA) are purchased from Sigma Chemical Co., St. Louis, Mo. U.S.A.
Approximately sixteen (16) to twenty (20) beef adrenal glands are processed as follows: fresh adrenal glands received on crushed ice are cleaned of fatty tissues and the tough membranes encapsulating the glands are removed and discarded. […] A 100 ul aliquot is withdrawn and the protein content of the preparation is determined by the Lowry's method (Lowry, O. H., Rosebrough, N. P., Farr, A. L. and Randall, R. J., Protein measurement with Polin phenol reagent. J. Biol. Chem., […], 265-275, 1951). […]
The binding of [^125 I](Sar^1 Ile^8)AngII to microsomal membranes is initiated by the addition of reconstituted membranes (1:10 vols.) in freshly made 50.0 mM Tris.HCl buffer, pH 7.4 containing 0.25% heat inactivated bovine serum albumin (BSA): 80 ul membrane protein (10 to 20 ug/assay) to wells already containing 100 ul of incubation buffer (as described above) and 20 ul [^125 I](Sar^1 Ile^8)AngII (Specific Activity, 2200 Ci/mmole). Non-specific binding is measured in the presence of 1.0 uM unlabeled (Sar^1,Ile^8)AngII, added in 20 ul volume. […]

IC50: 3.5 nM
Structure (SMILES): CCCCc1nc2ccc(C(C)(O)CC3CCCN3)cc2c(=O)n1Cc1ccc(-c2ccccc2-c2nnn[nH]2)cc1 (stereo not drawn) [Example 79, CIS-2-Butyl-6-[1-hydroxy-1-methyl-2-(2-pyrrolidinyl)ethyl]-3-[[21-(1H-tetrazol-5-yl)[1,1'-biphenyl]-4-yl]methyl]-4(3H)-quinazolinone]
